PubChem BioAssay (NCI)
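All cell lines were grown in 96-well plates and treated with compound for 48 hours. The concentration for full growth arrest is given as TGI.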 Where a SMILES comes first, the peptide text is derived from it. [ ]: non-standard residue; d: D form. The star is where a group is joined. ξ: configuration not given here. ξHyp = O=C(O)C1CC(O)CN1; Cbz = O=C(OCc1ccccc1)*

Tests used:
Assay in all cases: NCI anticancer screen, dose series, 48 h
[1] = test system: A498 renal
[2] = test system: A549 NSCLC
[3] = test system: BT-549 breast
[4] = test system: CAKI-1 renal
[5] = test system: COLO 205 colon
[6] = test system: DU-145 prostate
[7] = test system: EKVX NSCLC
[8] = test system: HCC-2998 colon
[9] = test system: HCT-116 colon
[10] = test system: HCT-15 colon
[11] = test system: HL-60(TB) leukemia
[12] = test system: HOP-62 NSCLC
[13] = test system: HOP-92 NSCLC
[14] = test system: HS 578T breast
[15] = test system: HT29 colon
[16] = test system: IGROV1 ovarian
[17] = test system: K-562 leukemia
[18] = test system: LOX IMVI melanoma
[19] = test system: M14 melanoma
[20] = test system: MALME-3M melanoma
[21] = test system: MCF7 breast
[22] = test system: MDA-MB-231 breast
[23] = test system: MDA-MB-435
[24] = test system: MDA-N
[25] = test system: NCI-H226 lung
[26] = test system: NCI-H23 lung
[27] = test system: NCI-H460 lung
[28] = test system: NCI/ADR-RES ovarian
[29] = test system: OVCAR-3 ovarian
[30] = test system: OVCAR-4 ovarian
[31] = test system: OVCAR-5 ovarian
[32] = test system: OVCAR-8 ovarian
[33] = test system: PC-3 prostate
[34] = test system: RXF 393 renal
[35] = test system: SF-268 CNS
[36] = test system: SF-295 CNS
[37] = test system: SF-539 CNS
[38] = test system: SK-MEL-2 melanoma
[39] = test system: SK-MEL-5 melanoma
[40] = test system: SK-OV-3 ovarian
[41] = test system: SN12C renal
[42] = test system: SNB-75 CNS
[43] = test system: SR leukemia
[44] = test system: SW-620 colon
[45] = test system: T-47D breast
[46] = test system: TK-10 renal
[47] = test system: U251 CNS
[48] = test system: UACC-257 melanoma
[49] = test system: UACC-62 melanoma
[50] = test system: UO-31 renal
[51] = test system: 786-0 renal
[52] = test system: ACHN renal
[53] = test system: CCRF-CEM leukemia
[54] = test system: KM12 colon
[55] = test system: MOLT-4 leukemia
[56] = test system: NCI-H522 lung
[57] = test system: RPMI-8226 leukemia
[58] = test system: SK-MEL-28 melanoma
[59] = test system: SNB-19 CNS

SMILES: O=C1CC2(CCC(O)(c3ccco3)C(C(=O)c3ccco3)C2)C(=O)c2ccccc2N1 (stereo unspecified)
- TGI [1]: > 100 µM
- TGI [2]: > 100 µM
- TGI [3]: > 100 µM
- TGI [4]: > 100 µM
- TGI [5]: > 100 µM
- TGI [6]: > 100 µM
- TGI [7]: > 100 µM
- TGI [8]: > 100 µM
- TGI [9]: > 100 µM
- TGI [10]: > 100 µM
- TGI [11]: > 100 µM
- TGI [12]: > 100 µM
- TGI [13]: > 100 µM
- TGI [14]: > 100 µM
- TGI [15]: > 100 µM
- TGI [16]: > 100 µM
- TGI [17]: > 100 µM
- TGI [18]: > 100 µM
- TGI [19]: > 100 µM
- TGI [20]: > 100 µM
- TGI [21]: > 100 µM
- TGI [22]: > 100 µM
- TGI [23]: > 100 µM
- TGI [24]: > 100 µM
- TGI [25]: > 100 µM
- TGI [26]: > 100 µM
- TGI [27]: > 100 µM
- TGI [28]: > 100 µM
- TGI [29]: > 100 µM
- TGI [30]: 57 µM
- TGI [31]: > 100 µM
- TGI [32]: > 100 µM
- TGI [33]: > 100 µM
- TGI [34]: > 100 µM
- TGI [35]: > 100 µM
- TGI [36]: > 100 µM
- TGI [37]: > 100 µM
- TGI [38]: > 100 µM
- TGI [39]: > 100 µM
- TGI [40]: > 100 µM
- TGI [41]: > 100 µM
- TGI [42]: > 100 µM
- TGI [43]: > 100 µM
- TGI [44]: > 100 µM
- TGI [45]: 81.7 µM
- TGI [46]: > 100 µM
- TGI [47]: > 100 µM
- TGI [48]: > 100 µM
- TGI [49]: > 100 µM
- TGI [50]: > 100 µM

SMILES: NC(=O)CNC(=O)C1CC(O)CN1C(=O)OCc1ccccc1 (stereo unspecified) (Cbz-[ξHyp]-Gly-NH2)
- TGI [51]: > 100 µM
- TGI [1]: > 100 µM
- TGI [2]: > 100 µM
- TGI [52]: > 100 µM
- TGI [3]: > 100 µM
- TGI [53]: > 100 µM
- TGI [5]: > 100 µM
- TGI [6]: > 100 µM
- TGI [7]: > 100 µM
- TGI [8]: > 100 µM
- TGI [9]: > 100 µM
- TGI [10]: > 100 µM
- TGI [11]: > 100 µM
- TGI [12]: > 100 µM
- TGI [14]: > 100 µM
- TGI [15]: > 100 µM
- TGI [16]: > 100 µM
- TGI [17]: > 100 µM
- TGI [54]: > 100 µM
- TGI [18]: > 100 µM
- TGI [19]: > 100 µM
- TGI [20]: > 100 µM
- TGI [21]: > 100 µM
- TGI [22]: > 100 µM
- TGI [23]: > 100 µM
- TGI [24]: > 100 µM
- TGI [55]: > 100 µM
- TGI [25]: > 100 µM
- TGI [26]: > 100 µM
- TGI [27]: > 100 µM
- TGI [56]: > 100 µM
- TGI [28]: > 100 µM
- TGI [29]: > 100 µM
- TGI [30]: > 100 µM
- TGI [31]: > 100 µM
- TGI [32]: > 100 µM
- TGI [33]: > 100 µM
- TGI [57]: > 100 µM
- TGI [34]: > 100 µM
- TGI [35]: > 100 µM
- TGI [36]: > 100 µM
- TGI [38]: > 100 µM
- TGI [58]: > 100 µM
- TGI [39]: > 100 µM
- TGI [40]: > 100 µM
- TGI [41]: > 100 µM
- TGI [59]: > 100 µM
- TGI [42]: > 100 µM
- TGI [43]: > 100 µM
- TGI [44]: > 100 µM
- TGI [45]: > 100 µM
- TGI [46]: > 100 µM
- TGI [47]: > 100 µM
- TGI [48]: > 100 µM
- TGI [49]: > 100 µM
- TGI [50]: > 100 µM
